{"source": "ChEMBL document CHEMBL1145699", "about": "“Bioactive Terpenoids from Octocorallia. 3. A New Eunicellin-Based Diterpenoid from the Soft Coral Cladiella sphaeroides” (J Nat Prod, 1997)", "system": "Artemia salina", "assay": "Toxicity against Artemia salina at 30 ppm", "assay_type": "organism-based", "conditions": "in vivo; call rule not given here", "data": [{"smiles": "C=C1CC[C@H](C(C)C)[C@@H]2[C@H]1[C@@H]1CC(=C)[C@@H](O)CC[C@](C)(O)[C@H]2O1", "note": "[CLADIELLISIN]", "values": [{"measurement": "Activity", "value": "Not Active"}]}]}
